Experiments:
Assay type in all cases: in vivo
[1] = test system: redroot pigweed (Amaranthus retroflexus, AMARE); test: Post-emerge greenhouse herbicide test, phytotoxicity rating; settings: Amaranthus retroflexus, post-emergence, 336 h, 14 days after application, scale 0-100
Method in brief: (§1)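 Compounds in acetone with 0.25% v/v non-ionic surfactant were track-sprayed at 187 l/ha over plants at the 2-3 leaf stage, at 63 to 1000 g ai/ha. Pots were bottom-watered. Injury was scored visually 14 days later on a 0-100 scale, where 0 is no damage and 100 is complete plant death.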

[2] = test system: large crabgrass (Digitaria sanguinalis, DIGSA); test: as above; settings: Digitaria sanguinalis, post-emergence, 336 h, 14 days after application, scale 0-100
Method in brief: as §1

[3] = test system: lambsquarters (Chenopodium album, CHEAL); test: as above; settings: Chenopodium album, post-emergence, 336 h, 14 days after application, scale 0-100
Method in brief: as §1

[4] = test system: green foxtail (Setaria viridis, SETVI); test: as above; settings: Setaria viridis, post-emergence, 336 h, 14 days after application, scale 0-100
Method in brief: as §1

[5] = test system: ivyleaf morningglory (Ipomoea hederacea, IPOHE); test: as above; settings: Ipomoea, post-emergence, 336 h, 14 days after application, scale 0-100
Method in brief: as §1

[6] = test system: sicklepod (Cassia obtusifolia, CASOB); test: as above; settings: Senna obtusifolia, post-emergence, 336 h, 14 days after application, scale 0-100
Method in brief: as §1

[7] = test system: barnyardgrass (Echinochloa crusgalli, ECHCG); test: Pre-emerge greenhouse herbicide test, phytotoxicity rating; settings: Echinochloa crus-galli, pre-emergence, 336 h, 14 days after application, rating scale 0-100
Method in brief: (§2)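 Seeds sown in sandy loam mix one day before track-sprayer application of compounds in acetone at 125–1000 g ai/ha (187 l/ha), then surface-watered to incorporate and bottom-watered. Visual rating 14 days after application on a 0–100 scale (0 = no damage, 100 = all plants dead).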

[8] = test system: redroot pigweed (Amaranthus retroflexus, AMARE); test: as above; settings: Amaranthus retroflexus, pre-emergence, 336 h, 14 days after application, rating scale 0-100
Method in brief: as §2

[9] = test system: Johnsongrass (Sorghum halepense, SORHA); test: as above; settings: Sorghum halepense, pre-emergence, 336 h, 14 days after application, rating scale 0-100
Method in brief: as §2

[10] = test system: large crabgrass (Digitaria sanguinalis, DIGSA); test: as above; settings: Digitaria sanguinalis, pre-emergence, 336 h, 14 days after application, rating scale 0-100
Method in brief: as §2

[11] = test system: lambsquarters (Chenopodium album, CHEAL); test: as above; settings: Chenopodium album, pre-emergence, 336 h, 14 days after application, rating scale 0-100
Method in brief: as §2

[12] = test system: green foxtail (Setaria viridis, SETVI); test: as above; settings: Setaria viridis, pre-emergence, 336 h, 14 days after application, rating scale 0-100
Method in brief: as §2

[13] = test system: velvetleaf (Abutilon theophrasti, ABUTH); test: as above; settings: Abutilon theophrasti, pre-emergence, 336 h, 14 days after application, rating scale 0-100
Method in brief: as §2

[14] = test system: ivyleaf morningglory (Ipomoea hederacea, IPOHE); test: as above; settings: Ipomoea, pre-emergence, 336 h, 14 days after application, rating scale 0-100
Method in brief: as §2

[15] = test system: sicklepod (Cassia obtusifolia, CASOB); test: as above; settings: Senna obtusifolia, pre-emergence, 336 h, 14 days after application, rating scale 0-100
Method in brief: as §2

Nn1c(C(F)(F)F)cc(=O)n(-c2cc(Oc3ccc(Cl)cn3)c(Cl)cc2F)c1=O [Compound 9-3, 1-Amino-3-[4-chloro-2-fluoro-5-(5-chloro-2-pyridyloxy)phenyl]-6-trifluoromethyl-1,2,3,4-tetrahydropyrimidine-2,4-dione]
pest or weed control at 63 g/ha ([1]; rate 63 g ai/ha): 100%
pest or weed control at 500 g/ha ([1]; rate 500 g ai/ha): 100%
pest or weed control at 63 g/ha ([2]; rate 63 g ai/ha): 30%
pest or weed control at 500 g/ha ([2]; rate 500 g ai/ha): 95%
pest or weed control at 63 g/ha ([3]; rate 63 g ai/ha): 95%
pest or weed control at 500 g/ha ([3]; rate 500 g ai/ha): 100%
pest or weed control at 63 g/ha ([4]; rate 63 g ai/ha): 20%
pest or weed control at 500 g/ha ([4]; rate 500 g ai/ha): 95%
pest or weed control at 63 g/ha ([5]; rate 63 g ai/ha): 100%
pest or weed control at 500 g/ha ([5]; rate 500 g ai/ha): 100%
pest or weed control at 63 g/ha ([6]; rate 63 g ai/ha): 20%
pest or weed control at 500 g/ha ([6]; rate 500 g ai/ha): 95%
pest or weed control at 125 g/ha ([7]; Rate 125 g al/ha): 30%
pest or weed control at 500 g/ha ([7]; Rate 500 g al/ha): 99%
pest or weed control at 125 g/ha ([8]; Rate 125 g al/ha): 100%
pest or weed control at 500 g/ha ([8]; Rate 500 g al/ha): 100%
pest or weed control at 125 g/ha ([9]; Rate 125 g al/ha): 70%
pest or weed control at 500 g/ha ([9]; Rate 500 g al/ha): 99%
pest or weed control at 125 g/ha ([10]; Rate 125 g al/ha): 95%
pest or weed control at 500 g/ha ([10]; Rate 500 g al/ha): 100%
pest or weed control at 125 g/ha ([11]; Rate 125 g al/ha): 100%
pest or weed control at 500 g/ha ([11]; Rate 500 g al/ha): 100%
pest or weed control at 125 g/ha ([12]; Rate 125 g al/ha): 100%
pest or weed control at 500 g/ha ([12]; Rate 500 g al/ha): 100%
pest or weed control at 125 g/ha ([13]; Rate 125 g al/ha): 100%
pest or weed control at 500 g/ha ([13]; Rate 500 g al/ha): 100%
pest or weed control at 125 g/ha ([14]; Rate 125 g al/ha): 40%
pest or weed control at 500 g/ha ([14]; Rate 500 g al/ha): 100%
pest or weed control at 125 g/ha ([15]; Rate 125 g al/ha): 0%
pest or weed control at 500 g/ha ([15]; Rate 500 g al/ha): 70%

From patent US6479435B1, “Diaryl ethers and processes for their preparation and herbicidal and desiccant compositions containing them” (ISK Americas Incorporated, priority 1997, dated 2002)
